Assay results from article PMC7042063 (Chembiochem : a European journal of chemical biology, 2019).

Legend:
Type in all cases: biochemical
[1] = biological target: T1, UCHL3 (Homo sapiens, UniProt P15374); assay: Ub-Rho cleavage assay, purified enzyme, […] min preincubation
T1 sequence (P15374 1-230): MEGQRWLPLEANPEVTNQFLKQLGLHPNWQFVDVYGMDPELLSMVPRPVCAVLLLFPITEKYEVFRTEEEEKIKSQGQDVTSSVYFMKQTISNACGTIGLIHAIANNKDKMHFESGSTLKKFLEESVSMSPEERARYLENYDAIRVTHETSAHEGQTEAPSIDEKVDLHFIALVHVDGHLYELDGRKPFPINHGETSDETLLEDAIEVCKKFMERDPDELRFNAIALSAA

[2] = biological target: T1, UCHL3; assay: Ub-Rho cleavage assay, purified enzyme
[3] = biological target: T2, Ubiquitin C-terminal Hydrolase L1 (UCHL1) (Homo sapiens, UniProt P09936); assay: inhibition IC50 of UCHL1
T2 sequence (P09936 1-220): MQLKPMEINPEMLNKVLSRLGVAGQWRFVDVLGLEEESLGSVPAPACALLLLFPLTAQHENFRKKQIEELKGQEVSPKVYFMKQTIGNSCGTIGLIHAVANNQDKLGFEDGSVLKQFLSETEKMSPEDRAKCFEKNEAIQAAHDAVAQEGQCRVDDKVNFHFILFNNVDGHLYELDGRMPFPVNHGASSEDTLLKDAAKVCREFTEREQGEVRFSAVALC

Structure (SMILES): N#CN1CCC[C@H]1C(=O)N1CCc2c(-c3cn[nH]c3C(F)(F)F)cccc21 [compound 1, (S)-2-(4-(5-(trifluoromethyl)-1H-pyrazol-4-yl)indoline-1-carbonyl)pyrrolidine-1-carbonitrile]
- IC50 [1]: 6.4 µM

Structure (SMILES): C#CCCn1cc(-c2cccc3c2CCN3C(=O)[C@@H]2CCCN2C#N)c(C(F)(F)F)n1 [compound 2, (S)-2-(4-(1-(but-3-yn-1-yl)-3-(trifluoromethyl)-1H-pyrazol-4-yl)indoline-1-carbonyl)pyrrolidine-1-carbonitrile]
- IC50 [2]: 5.5 µM
- IC50 [3]: 6.4 µM
